Reference: patent US10065965B2, “Imidazo[1,2-B][1,2,4]triazine derivatives as antiparasitic agents” (GlaxoSmithKline Intellectual Property Development Limited, priority 2015, dated 2018)
≈ marks a conversion by molar mass, not a printed value.

Tests used:
Trypanosoma brucei = assay: Assay 3 Trypanosoma brucei cell growth inhibition assay; assay type: cell-based; conditions: T. b. brucei BSF427, 69 h + 4 h resazurin, maximum threshold 8.0, read-out: pEC50 value against Trypanosoma brucei (converted)
Procedure: Measurement of the ability of the compounds to inhibit trypanosome (T. b. brucei, BSF427, VSG118) cell growth was performed using a modification of the cell viability assay previously described by Raz et al. (Raz B.; Iten M.; Grether-Buhler Y.; Kaminski R.; Brun R. The Alamar Blue assay to determine drug sensitivity of African trypanosomes (T. b. rhodesiense and T. b. gambiense) in vitro. Acta Trop. 1997, 68, 139-147). Compounds were dissolved in DMSO at a top concentration of 10 mM and serially diluted in half log steps to achieve a range of final assay concentrations of 50 μM to 0.5 nM. Compound at each concentration (200-fold final) was added to clear 96-well tissue culture plates in a volume of 1 μL. Then 2000 cells per well in relevant growth medium (HMI-9T for T. brucei, a modification of HMI-9 as described by Hurumi et al. (Hirumi H.; Hirumi K. Continuous cultivation of Trypanosoma brucei blood stream forms in a medium containing a low concentration of serum-protein without feeder cell-layers. J. Parasitol. 1989, 75, 985-989.) where 0.2 mM 2-mercaptoethanol was replaced with 0.056 mM thiolglycerol, and MEM with 10% FBS for MRC5) were then added to columns 1-11 of the plates in a volume of 199 μL. To column 12, 200 μL of medium was added to provide a no cells control. Plates were then incubated at 37° C. in an atmosphere of 5% CO2 for 69 h, before the addition of 20 μL of 500 μM rezasurin solution, and a further incubation period of 4 h. Plates were then read on a BioTek flx800 fluorescent plate reader, and percentage inhibition was compared to the maximum and minimum assay controls. Concentration effect curves were fitted using nonlinear regression using XLFit 4.2 and EC50 values determined.

[1] = Assay 4 solubility assay, ChemiLuminescent Nitrogen Detection (CLND); assay type: physicochemical; conditions: phosphate buffered saline, pH 7.4, aqueous buffer, kinetic from dmso stock, pH 7.4 PBS, from 10 mM DMSO stock, 1 h at room temperature
Summary of the method: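 Kinetic solubility: 10 mM DMSO stock diluted 5 µl into 100 µl pH 7.4 PBS, incubated 1 h at room temperature, then filtered. Filtrate quantified by HPLC with chemiluminescent nitrogen detection against ondansetron and caffeine standards; solubility in µM by linear-regression calibration.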

[2] = Assay 1 intramacrophage Leishmania donovani assay, THP-1 cell count (cytotoxicity readout); assay type: cell-based; conditions: human, minimum threshold 4.3, read-out: cytotoxicity against THP-1 cells, pEC50 value (converted)
Procedure: The intramacrophage Leishmania assay was performed using a modified version of the method described in De Rycker et al. (Antimicrob Agents Chemother. 2013 July; 57(7):2913-22. Comparison of a high-throughput high-content intracellular Leishmania donovani assay with an axenic amastigote assay. De Rycker M, Hallyburton I, Thomas J, Campbell L, Wyllie S, Joshi D, Cameron S, Gilbert I H, Wyatt P G, Frearson J A, Fairlamb A H, Gray D W.). Procedure: 350 nl of compound was pre-dispensed into 384 well sterile intermediary plates. For single point screening, amphotericin B was added to all wells of column 24 as a positive control (final concentration 2 μM) and DMSO to column 23. For potency determinations, ten-point, one in three dilution curves were created with the highest concentration being 50 μM and on each plate a control curve of amphotericin B was included. Controls were as follows: columns 11 and 12: DMSO, columns 23 and 24: amphotericin B (final concentration 2 μM). To the intermediary plates, 35 μl of THP-1 media was added and plates were shaken for >5 min to ensure complete mixing. THP-1 cells (8,000 per well, 50 μl) were plated into black clear-bottom 384 well plates (Corning) in presence of 20 nM PMA. After 20 min at RT, the plates were incubated at 37° C. under 5% CO2 in a humidified incubator for 75 h. The cells were then washed with […] sterile phosphate buffered saline (PBS) supplemented with 1 mM CaCl2, 0.5 mM MgCl2, 0.1% (w/v) bovine serum albumin (PBS-A) and amastigotes were added to all wells at a multiplicity of infection of 5 (40,000 amastigotes per well). After 40 min at RT, plates were returned to the incubator. Amastigotes were incubated in the presence of THP-1 macrophages for 16 h. Any remaining extracellular amastigotes were subsequently removed with an overflow wash of 1 mL PBS-A per well (wash buffer is being aspirated from the top of the well as it is being dispensed) followed by addition of 25 μl of the compound pre-dilutions using a Fluidx Ipette-pro pipetting station. The final dilution of each compound was 200-fold. Plates were incubated for 96 h and then washed (250 μl PBS-A) and fixed (4% (v/v) formaldehyde-PBS, 30 min, RT). After fixation, the wells were washed with 250 μl PBS, stained (10 μg/mL DAPI, 0.4 μg mL-1 HCS Cellmask Deep Red in PBS+0.1% (v/v) Triton X-100, 30 min, RT) and washed with 250 μl PBS. Finally, PBS+0.05% (v/v) thimerosal was added to the wells, the plates were sealed and imaged on a high-content microscope (GE IN Cell 2000) using a 10× objective. Image analysis was carried out with GE IN Cell Analyzer 1000 Workstation using the “Multi Target Analysis” module. Settings for segmentation were as follows: nuclei: minimum area: 142.384 μm2, sensitivity: 81, method: top-hat; cells: characteristic area: 2500 μm2, sensitivity: 60, method: multiscale top-hat; organelles (amastigotes): granule size 1-3, 3 scales, sensitivity: 90, detection in entire cell. For each well, i) THP-1 cell count (cytotoxicity readout) and ii) average number of amastigotes per cell (potency readout) were calculated, both in terms of pEC50 values.

## O=C(Nc1ccc(F)c(-c2cn3nc(N4CCOCC4)cnc3n2)c1)N1CCCC1 [Example 1, N-(4-fluoro-3-(2-morpholinoimidazo[1,2-b][1,2,4]triazin-6-yl)phenyl)pyrrolidine-1-carboxamide]
Trypanosoma brucei
  EC50: < 0.01 µM
[1]
  solubility at 1 h: 100 to 416 µM (≈ 41.1 to 171 µg/mL)
[2]
  EC50 at 96 h: > 50.1 µM
